The supplement of paper PMC10307832

How the values were obtained:
Test in all cases: relative viability (nuclei count vs DMSO), 5 days (fraction); higher = more cells survive
HCC-827 = tested on: HCC-827
Summary of the method: (§1)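 A single step with final 0.05% Triton X-100, 1% formaldehyde and 1 ug/ml Hoechst fixed the cells and stained nuclei 5 days after treatment. Lung cancer cell lines in 1536-well plates had been treated by pin tool the day after seeding with one drug alone or a fixed anchor-drug dose plus five library-drug doses (not always all listed) in √10 steps, and nuclei were counted on 4× images. Relative viability is the ratio of nuclei in treated wells to nuclei in vehicle wells, taken as the median of duplicate plates.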

EKVX = tested on: EKVX
Summary of the method: as §1

NCI-H358 = tested on: NCI-H358
Summary of the method: as §1

NCI-H1651 = tested on: NCI-H1651
Summary of the method: as §1

NCI-H1975 = tested on: NCI-H1975
Summary of the method: as §1

COR-L23 = tested on: COR-L23
Summary of the method: as §1

NCI-H661 = tested on: NCI-H661
Summary of the method: as §1

HCC-15 = tested on: HCC-15
Summary of the method: as §1

NCI-H2087 = tested on: NCI-H2087
Summary of the method: as §1

NCI-H727 = tested on: NCI-H727
Summary of the method: as §1

LCLC-103H = tested on: LCLC-103H
Summary of the method: as §1

COR-L 105 = tested on: COR-L 105
Summary of the method: as §1

HCC-44 = tested on: HCC-44
Summary of the method: as §1

NCI-H520 = tested on: NCI-H520
Summary of the method: as §1

UMC-11 = tested on: UMC-11
Summary of the method: as §1

EPLC-272H = tested on: EPLC-272H
Summary of the method: as §1

NCI-H1792 = tested on: NCI-H1792
Summary of the method: as §1

NCI-H1437 = tested on: NCI-H1437
Summary of the method: as §1

201T = tested on: 201T
Summary of the method: as §1

NCI-H647 = tested on: NCI-H647
Summary of the method: as §1

H3255 = tested on: H3255
Summary of the method: as §1

ABC-1 = tested on: ABC-1
Summary of the method: as §1

SMILES: Cc1cnc(-c2cnc(NCCNc3ccc(C#N)cn3)nc2-c2ccc(Cl)cc2Cl)[nH]1 + Cc1nc(NC(=O)N2CCC[C@H]2C(N)=O)sc1-c1ccnc(C(C)(C)C(F)(F)F)c1 [Alpelisib] (partner 2 µM)
- relative viability (HCC-827; first compound 0.08 µM): 1.08
- relative viability (HCC-827; first compound 0.8 µM): 0.99
- relative viability (HCC-827; first compound 2.53 µM): 0.929
- relative viability (EKVX; first compound 0.08 µM): 1.04
- relative viability (EKVX; first compound 0.253 µM): 0.739
- relative viability (EKVX; first compound 0.8 µM): 0.839
- relative viability (EKVX; first compound 2.53 µM): 0.766
- relative viability (NCI-H358; first compound 0.08 µM): 0.955
- relative viability (NCI-H358; first compound 0.253 µM): 0.714
- relative viability (NCI-H358; first compound 0.8 µM): 0.843
- relative viability (NCI-H358; first compound 2.53 µM): 0.729
- relative viability (NCI-H1651; first compound 0.08 µM): 1.08
- relative viability (NCI-H1651; first compound 0.253 µM): 0.903
- relative viability (NCI-H1651; first compound 0.8 µM): 0.965
- relative viability (NCI-H1651; first compound 2.53 µM): 0.991
- relative viability (NCI-H1975; first compound 0.08 µM): 0.667
- relative viability (NCI-H1975; first compound 0.253 µM): 0.571
- relative viability (NCI-H1975; first compound 0.8 µM): 0.561
- relative viability (NCI-H1975; first compound 2.53 µM): 0.52
- relative viability (COR-L23; first compound 0.08 µM): 0.918
- relative viability (COR-L23; first compound 0.253 µM): 0.649
- relative viability (COR-L23; first compound 0.8 µM): 0.826
- relative viability (COR-L23; first compound 2.53 µM): 0.774
- relative viability (NCI-H661; first compound 0.08 µM): 0.419
- relative viability (NCI-H661; first compound 0.253 µM): 0.645
- relative viability (NCI-H661; first compound 0.8 µM): 0.76
- relative viability (NCI-H661; first compound 2.53 µM): 0.654
- relative viability (HCC-15; first compound 0.08 µM): 0.857
- relative viability (HCC-15; first compound 0.253 µM): 0.815
- relative viability (HCC-15; first compound 0.8 µM): 0.853
- relative viability (HCC-15; first compound 2.53 µM): 0.881
- relative viability (NCI-H2087; first compound 0.08 µM): 1.21
- relative viability (NCI-H2087; first compound 0.253 µM): 0.892
- relative viability (NCI-H2087; first compound 0.8 µM): 1.02
- relative viability (NCI-H2087; first compound 2.53 µM): 1.06
- relative viability (NCI-H727; first compound 0.08 µM): 0.505
- relative viability (NCI-H727; first compound 0.253 µM): 0.593
- relative viability (NCI-H727; first compound 0.8 µM): 0.566
- relative viability (NCI-H727; first compound 2.53 µM): 0.482
- relative viability (LCLC-103H; first compound 0.08 µM): 1.16
- relative viability (LCLC-103H; first compound 0.253 µM): 0.958
- relative viability (LCLC-103H; first compound 0.8 µM): 1.07
- relative viability (LCLC-103H; first compound 2.53 µM): 0.951
- relative viability (COR-L 105; first compound 0.08 µM): 0.994
- relative viability (COR-L 105; first compound 0.253 µM): 0.927
- relative viability (COR-L 105; first compound 0.8 µM): 1.11
- relative viability (COR-L 105; first compound 2.53 µM): 0.612
- relative viability (HCC-44; first compound 0.08 µM): 0.853
- relative viability (HCC-44; first compound 0.253 µM): 0.768
- relative viability (HCC-44; first compound 0.8 µM): 0.823
- relative viability (HCC-44; first compound 2.53 µM): 0.926
- relative viability (NCI-H520; first compound 0.08 µM): 0.926
- relative viability (NCI-H520; first compound 0.253 µM): 0.791
- relative viability (NCI-H520; first compound 0.8 µM): 1.11
- relative viability (NCI-H520; first compound 2.53 µM): 1.04
- relative viability (UMC-11; first compound 0.08 µM): 0.844
- relative viability (UMC-11; first compound 0.253 µM): 0.903
- relative viability (UMC-11; first compound 0.8 µM): 1.02
- relative viability (UMC-11; first compound 2.53 µM): 0.908
- relative viability (EPLC-272H; first compound 0.08 µM): 0.911
- relative viability (EPLC-272H; first compound 0.253 µM): 1.01
- relative viability (EPLC-272H; first compound 0.8 µM): 0.728
- relative viability (EPLC-272H; first compound 2.53 µM): 0.899
- relative viability (NCI-H1792; first compound 0.08 µM): 0.736
- relative viability (NCI-H1792; first compound 0.253 µM): 0.639
- relative viability (NCI-H1792; first compound 0.8 µM): 0.625
- relative viability (NCI-H1792; first compound 2.53 µM): 0.674
- relative viability (NCI-H1437; first compound 0.08 µM): 0.962
- relative viability (NCI-H1437; first compound 0.253 µM): 0.937
- relative viability (NCI-H1437; first compound 0.8 µM): 0.909
- relative viability (NCI-H1437; first compound 2.53 µM): 0.918
- relative viability (201T; first compound 0.08 µM): 1.07
- relative viability (201T; first compound 0.253 µM): 0.959
- relative viability (201T; first compound 0.8 µM): 1.01
- relative viability (201T; first compound 2.53 µM): 1.02
- relative viability (NCI-H647; first compound 0.08 µM): 1.19
- relative viability (NCI-H647; first compound 0.253 µM): 1.08
- relative viability (NCI-H647; first compound 0.8 µM): 1.05
- relative viability (NCI-H647; first compound 2.53 µM): 1.22
- relative viability (H3255; first compound 0.08 µM): 0.886
- relative viability (H3255; first compound 0.253 µM): 0.618
- relative viability (H3255; first compound 0.8 µM): 0.802
- relative viability (H3255; first compound 2.53 µM): 0.73
- relative viability (ABC-1; first compound 0.08 µM): 0.961
- relative viability (ABC-1; first compound 0.253 µM): 0.867
- relative viability (ABC-1; first compound 0.8 µM): 1.02
- relative viability (ABC-1; first compound 2.53 µM): 0.814

SMILES: Cc1cnc(-c2cnc(NCCNc3ccc(C#N)cn3)nc2-c2ccc(Cl)cc2Cl)[nH]1 + NC(=O)Nc1cc(-c2cccc(F)c2)sc1C(=O)N[C@H]1CCCNC1 [AZD7762] (partner 0.2 µM)
- relative viability (HCC-827; first compound 0.08 µM): 0.242
- relative viability (HCC-827; first compound 0.253 µM): 0.169
- relative viability (HCC-827; first compound 0.8 µM): 0.193
- relative viability (HCC-827; first compound 2.53 µM): 0.171
- relative viability (EKVX; first compound 0.08 µM): 0.731
- relative viability (EKVX; first compound 0.253 µM): 0.698
- relative viability (EKVX; first compound 0.8 µM): 0.588
- relative viability (EKVX; first compound 2.53 µM): 0.655
- relative viability (NCI-H358; first compound 0.08 µM): 0.529
- relative viability (NCI-H358; first compound 0.253 µM): 0.5
- relative viability (NCI-H358; first compound 0.8 µM): 0.478
- relative viability (NCI-H358; first compound 2.53 µM): 0.47
- relative viability (NCI-H1651; first compound 0.08 µM): 0.506
- relative viability (NCI-H1651; first compound 0.253 µM): 0.406
- relative viability (NCI-H1651; first compound 0.8 µM): 0.454
- relative viability (NCI-H1651; first compound 2.53 µM): 0.459
- relative viability (NCI-H1975; first compound 0.08 µM): 0.818
- relative viability (NCI-H1975; first compound 0.253 µM): 0.583
- relative viability (NCI-H1975; first compound 0.8 µM): 0.575
- relative viability (NCI-H1975; first compound 2.53 µM): 0.506
- relative viability (HCC-15; first compound 0.08 µM): 1.17
- relative viability (HCC-15; first compound 0.253 µM): 0.968
- relative viability (HCC-15; first compound 0.8 µM): 1.2
- relative viability (HCC-15; first compound 2.53 µM): 1.13
- relative viability (NCI-H2087; first compound 0.08 µM): 1.3
- relative viability (NCI-H2087; first compound 0.8 µM): 1.3
- relative viability (NCI-H2087; first compound 2.53 µM): 1.17
- relative viability (NCI-H727; first compound 0.08 µM): 0.621
- relative viability (NCI-H727; first compound 0.253 µM): 0.547
- relative viability (NCI-H727; first compound 0.8 µM): 0.574
- relative viability (NCI-H727; first compound 2.53 µM): 0.651
- relative viability (LCLC-103H; first compound 0.08 µM): 0.86
- relative viability (LCLC-103H; first compound 0.253 µM): 0.76
- relative viability (LCLC-103H; first compound 0.8 µM): 0.714
- relative viability (LCLC-103H; first compound 2.53 µM): 0.757
- relative viability (HCC-44; first compound 0.08 µM): 1.05
- relative viability (HCC-44; first compound 0.253 µM): 1.02
- relative viability (HCC-44; first compound 0.8 µM): 1.06
- relative viability (HCC-44; first compound 2.53 µM): 1.15
- relative viability (EPLC-272H; first compound 0.08 µM): 0.36
- relative viability (EPLC-272H; first compound 0.253 µM): 0.269
- relative viability (EPLC-272H; first compound 0.8 µM): 0.224
- relative viability (EPLC-272H; first compound 2.53 µM): 0.202
- relative viability (NCI-H1792; first compound 0.08 µM): 0.8
- relative viability (NCI-H1792; first compound 0.253 µM): 0.611
- relative viability (NCI-H1792; first compound 0.8 µM): 0.594
- relative viability (NCI-H1792; first compound 2.53 µM): 0.446
- relative viability (NCI-H1437; first compound 0.08 µM): 1.17
- relative viability (NCI-H1437; first compound 0.253 µM): 1.06
- relative viability (NCI-H1437; first compound 0.8 µM): 1.06
- relative viability (NCI-H1437; first compound 2.53 µM): 1.01
- relative viability (201T; first compound 0.08 µM): 0.702
- relative viability (201T; first compound 0.8 µM): 0.567
- relative viability (201T; first compound 2.53 µM): 0.619
- relative viability (NCI-H647; first compound 0.08 µM): 0.439
- relative viability (NCI-H647; first compound 0.253 µM): 0.341
- relative viability (NCI-H647; first compound 0.8 µM): 0.405
- relative viability (NCI-H647; first compound 2.53 µM): 0.364
- relative viability (H3255; first compound 0.08 µM): 0.996
- relative viability (H3255; first compound 0.253 µM): 0.887
- relative viability (H3255; first compound 0.8 µM): 0.879
- relative viability (H3255; first compound 2.53 µM): 0.888
- relative viability (ABC-1; first compound 0.253 µM): 0.772
- relative viability (ABC-1; first compound 0.8 µM): 0.771
- relative viability (ABC-1; first compound 2.53 µM): 0.862
